Measurements: patent publication US7419966B2, “[5-carboxamido or 5-fluoro]-[2′,3′-unsaturated or 3′-modified]-pyrimidine nucleosides” (Emory University, priority 1995, dated 2008)
Read-outs that look alike come from different tables or passages of the source.

Tests used:
Type in all cases: cell-based
HIV-2ROD2 = experiment: Anti-HIV-2 activity in PBMC; details: Table 3; HIV-2ROD2; read-out: Anti-HIV-2 in PBMC EC50
various cell lines = experiment: Toxicity in various cell lines (PBM, CEM, Vero); details: PBM, CEM and Vero cells
HIV-1 (strain LAV) = experiment: Anti-HIV-1 activity in PHA-stimulated human PBM cells (reverse transcriptase readout); details: for EC50: Table 3, HIV-1LAI, estimated 10% error factor, read-out: Anti-HIV-1 in PBMC EC50; for antiviral activity against HIV, in words: text b71, b85
Protocol: The ability of nucleosides to inhibit HIV can be measured by various experimental techniques. The technique used herein, and described in detail below, measures the inhibition of viral replication in phytohemagglutinin (PHA) stimulated human peripheral blood mononuclear (PBM) cells infected with HIV-1. (strain LAV). The amount of virus produced is determined by measuring the virus-coded reverse transcriptase enzyme. The amount of enzyme produced is proportional to the amount of virus produced.
Three-day-old phytohemagglutinin-stimulated PBM cells (10^6 cells/ml) from hepatitis B and HIV-1 seronegative healthy donors were infected with HIV-1 (strain LAV) at a concentration of about 100 times the 50% tissue culture infectious dose (TICD 50) per ml and cultured in the presence and absence of various concentrations of antiviral compounds.
Approximately one hour after infection, the medium, with the compound to be tested (2 times the final concentration in medium) or without compound, was added to the flasks (5 ml; final volume 10 ml). AZT was used as a positive control.
The cells were exposed to the virus (about 2×10^5 dpm/ml, as determined by reverse transcriptase assay) and then placed in a CO2 incubator. HIV-1 (strain LAV) was obtained from the Center for Disease Control, Atlanta, Ga. The methods used for culturing the PBM cells, harvesting the virus and determining the reverse transcriptase activity were those described by McDougal et al. (J. Immun. Meth. 76, 171-183, 1985) and Spira et al. (J. Clin. Meth. 25, 97-99, 1987), except that fungizone was not included in the medium (see Schinazi, et al., Antimicrob. Agents Chemother. 32, 1784-1787 (1988); Id., 34:1061-1067 (1990)).
On day 6, the cells and supernatant were transferred to a 15 ml tube and centrifuged at about 900 g for 10 minutes. Five ml of supernatant were removed and the virus was concentrated by centrifugation at 40,000 rpm for 30 minutes (Beckman 70.1 Ti rotor). The solubilized virus pellet was processed for determination of the levels of reverse transcriptase. Results are expressed in dpm/ml of sampled supernatant. Virus from smaller volumes of supernatant (1 ml) can also be concentrated by centrifugation prior to solubilization and determination of reverse transcriptase levels.

[1] = system: hepatitis B virus in transfected HepG-2 (2.2.15) cells; experiment: Anti-HBV activity in 2.2.15 cell cultures (HBV virion DNA and replicative intermediates); details: for EC50 / EC90: day 9
Protocol: The ability of the active compounds to inhibit the growth of virus in 2.2.15 cell cultures (HepG2 cells transformed with hepatitis virion) can be evaluated as described in detail below.
A summary and description of the assay for antiviral effects in this culture system and the analysis of HBV DNA has been described (Korba and Milman, 1991, Antiviral Res., 15:217). The antiviral evaluations were performed on two separate passages of cells. All wells, in all plates, were seeded at the same density and at the same time.
Due to the inherent variations in the levels of both intracellular and extracellular HBV DNA, only depressions greater than 3.5-fold (for HBV virion DNA) or 3.0-fold (for HBV DNA replication intermediates) from the average levels for these HBV DNA forms in untreated cells are considered to be statistically significant [P<0.05]. The levels of integrated HBV DNA in each cellular DNA preparation (which remain constant on a per cell basis in these experiments) were used to calculate the levels of intracellular HBV DNA forms, thereby ensuring that equal amounts of cellular DNA were compared between separate samples.
Typical values for extracellular HBV virion DNA in untreated cells ranged from 50 to 150 pg/ml culture medium (average of approximately 76 pg/ml). Intracellular HBV DNA replication intermediates in untreated cells ranged from 50 to 100 pg/μg cell DNA (average approximately 74 pg/μg cell DNA). In general, depressions in the levels of intracellular HBV DNA due to treatment with antiviral compounds are less pronounced, and occur more slowly, than depressions in the levels of HBV virion DNA (Korba and Milman, 1991, Antiviral Res., 15:217).

[2] = system: 2.2.15 cells (HepG2 cells transformed with hepatitis virion); experiment: Toxicity in 2.2.15 cells by neutral red dye uptake; details: Table 4; 2.2.15 cells; read-out: Cytotoxicity IC50 ± SD
Protocol: (§1) Toxicity analyses were performed to assess whether any observed antiviral effects were due to a general effect on cell viability. The method used herein was the measurement of the uptake of neutral red dye, a standard and widely used assay for cell viability in a variety of virus-host systems, including HSV and HIV. Toxicity analyses were performed in 96-well flat bottomed tissue culture plates. Cells for the toxicity analyses were cultured and treated with test compounds with the same schedule as described for the antiviral evaluations below. Each compound was tested at 4 concentrations, each in triplicate cultures (wells “A”, “B”, and “C”). Uptake of neutral red dye was used to determine the relative level of toxicity. The absorbance of internalized dye at 510 nm (Asin) was used for the quantitative analysis. Values are presented as a percentage of the average Asin values in 9 separate cultures of untreated cells maintained on the same 96-well plate as the test compounds. Dye uptake in the 9 control cultures on plate 5 ranged from 91.6% to 110.4%, and on plate 6 from 96.6% to 109%.

SIVSMM = experiment: Anti-SIV activity in PBMC; details: Table 3; SIVSMM; read-out: Anti-SIV in PBMC EC50
Vero cells = experiment: Toxicity in Vero cells; details: Table 3
[3] = system: uninfected human PBM cells; experiment: Toxicity in mitogen-stimulated uninfected human PBM cells (cell count, trypan blue exclusion); details: Table 3
Protocol: Mitogen stimulated uninfected human PBM cells (3.8×10^5 cells/ml) were cultured in the presence and absence of drug under similar conditions as those used for the antiviral assay described above. The cells were counted after 6 days using a hemacytometer and the trypan blue exclusion method, as described by Schinazi et al., Antimicrobial Agents and Chemotherapy, 22(3), 499 (1982). […]

CEM cells = experiment: Toxicity in CEM cells; details: Table 3
[4] = Toxicity in 2.2.15 cells by neutral red dye uptake; details: human, 2.2.15 cells (HepG2 cells transformed with hepatitis virion), 2.2.15 cells, read-out: Cytotoxicity IC50 ± SD
Protocol: as §1

[5] = Table 4, extracellular DNA, untreated control 88 pg/ml, read-out: HBV virion EC50 ± SD
[6] = Table 4, extracellular DNA, untreated control 88 pg/ml, read-out: HBV virion EC90 ± SD
[7] = Table 4, replicative intermediates (intracellular DNA), untreated control 79 pg/μg cell DNA, read-out: HBV RI EC50 ± SD
[8] = Table 4, replicative intermediates (intracellular DNA), untreated control 79 pg/μg cell DNA, read-out: HBV RI EC90 ± SD

| Compound | EC50 (HIV-2ROD2) | toxicity, in words (various cell lines) | EC50 (HIV-1 (strain LAV)) | antiviral activity against HIV, in words (HIV-1 (strain LAV)) | EC50 [1, 5] | EC90 [1, 6] | EC50 [1, 7] | EC90 [1, 8] | IC50 [2] | EC50 (SIVSMM) | IC50 (Vero cells) | IC50 [3] | IC50 (CEM cells) | Selectivity Index IC50/EC90 RI ([1]; Table 2) | Selectivity Index IC50/EC90 Virion ([1]; Table 2) | IC50 ([4]; Table 2) | further results |
| --- | --- | --- | --- | --- | --- | --- | --- | --- | --- | --- | --- | --- | --- | --- | --- | --- | --- |
| Nc1ccn([C@@H]2C=C[C@H](CO)O2)c(=O)n1 [L-D4C, β-L-2′,3′-didehydro-2′,3′-dideoxy-cytidine] | 0.033 µM | relatively nontoxic | 0.0058 µM | significant activity against HIV | 0.15 ± 0.02 µM | 0.33 ± 0.04 µM | 0.91 ± 0.09 µM | 2.3 ± 0.3 µM | 1040 ± 92 µM | 0.048 µM | 10.8 µM | > 100 µM | 0.73 µM |  |  |  |  |
| Nc1nc(=O)n([C@@H]2CS[C@H](CO)O2)cc1F [β-L-FTC, (−)-cis-2-hydroxymethyl-5-(5-fluorocytosin-1-yl)-1,3-oxathiolane, reference compound] |  |  |  |  |  |  |  |  |  |  |  |  |  | 1,913 | 678 | 746 ± 33 µM | EC50 ([1]; Hepatitis B virus, HepG2 2.2.15, 216 h, Table 2, extracellular DNA, untreated control 102 pg/ml, read-out: HBV virion EC50 ± SD): 0.04 ± 0.006 µM; EC90 ([1]; Hepatitis B virus, HepG2 2.2.15, 216 h, Table 2, extracellular DNA, untreated control 102 pg/ml, read-out: HBV virion EC90 ± SD): 1.1 ± 0.1 µM; EC50 ([1]; Hepatitis B virus, HepG2 2.2.15, 216 h, Table 2, replicative intermediates (intracellular DNA), untreated control 87 pg/μg cell DNA, read-out: HBV RI EC50 ± SD): 0.16 ± 0.01 µM; EC90 ([1]; Hepatitis B virus, HepG2 2.2.15, 216 h, Table 2, replicative intermediates (intracellular DNA), untreated control 87 pg/μg cell DNA, read-out: HBV RI EC90 ± SD): 0.39 ± 0.22 µM |
| Nc1ccn([C@H]2CC[C@@H](CO)O2)c(=O)n1 [β-D-DDC, 2′,3′-dideoxycytidine, reference compound] |  |  |  |  |  |  |  |  |  |  |  |  |  | 18 | 26 | 236 ± 21 µM | EC50 ([1]; Hepatitis B virus, HepG2 2.2.15, 216 h, read-out: HBV RI EC50 ± SD, Table 2, replicative intermediates (intracellular DNA), untreated control 87 pg/μg cell DNA): 3.4 ± 0.4 µM; EC50 ([1]; Hepatitis B virus, HepG2 2.2.15, 216 h, read-out: HBV RI EC50 ± SD, Table 4, replicative intermediates (intracellular DNA), untreated control 79 pg/μg cell DNA): 2.4 ± 0.3 µM; EC90 ([1]; Hepatitis B virus, HepG2 2.2.15, 216 h, read-out: HBV RI EC90 ± SD, Table 2, replicative intermediates (intracellular DNA), untreated control 87 pg/μg cell DNA): 13 ± 1.4 µM; EC90 ([1]; Hepatitis B virus, HepG2 2.2.15, 216 h, read-out: HBV RI EC90 ± SD, Table 4, replicative intermediates (intracellular DNA), untreated control 79 pg/μg cell DNA): 12 ± 1.1 µM; EC50 ([1]; Hepatitis B virus, HepG2 2.2.15, 216 h, read-out: HBV virion EC50 ± SD, Table 2, extracellular DNA, untreated control 102 pg/ml): 1.4 ± 0.2 µM; EC50 ([1]; Hepatitis B virus, HepG2 2.2.15, 216 h, read-out: HBV virion EC50 ± SD, Table 4, extracellular DNA, untreated control 88 pg/ml): 1.5 ± 0.2 µM; EC90 ([1]; Hepatitis B virus, HepG2 2.2.15, 216 h, read-out: HBV virion EC90 ± SD, Table 2, extracellular DNA, untreated control 102 pg/ml): 9.6 ± 1.1 µM; EC90 ([1]; Hepatitis B virus, HepG2 2.2.15, 216 h, read-out: HBV virion EC90 ± SD, Table 4, extracellular DNA, untreated control 88 pg/ml): 8.2 ± 0.8 µM; Selectivity Index IC50/EC90 RI ([1]; Table 4): 22; Selectivity Index IC50/EC90 Virion ([1]; Table 4): 37; IC50 ([4]; Table 4): 259 ± 18 µM |
| Nc1nc(=O)n([C@@H]2C=C[C@H](CO)O2)cc1F [L-F-D4C, β-L-2′,3′-didehydro-2′,3′-dideoxy-5-fluoro-cytidine] | 0.0006 µM | relatively nontoxic | 0.0015 µM | significant activity against HIV | 0.28 ± 0.03 µM | 0.41 ± 0.04 µM | 0.33 ± 0.04 µM | 0.75 ± 0.07 µM | > 3 µM | 0.00015 µM | 40.3 µM | > 100 µM | 7.3 µM |  |  |  |  |
